# Experimental data taken from patent US20200397795A1, “PROPHYLACTIC TREATMENT OF VENOUS THROMBOEMBOLISM” (JANSSEN PHARMACEUTICALS, INC., priority 2019, published 2020).
# Assays:
# [1] = system: symptomatic VTE and VTE-related death in high-risk, medically ill subjects; assay: MARINER (Study 2): efficacy of rivaroxaban vs placebo for 45 days post-hospital discharge; assay type: in vivo, human; design: Primary efficacy outcome, absolute difference vs placebo / Primary efficacy outcome, relative risk reduction vs placebo: concentration or dose not given beside the values; details: for Primary efficacy outcome (symptomatic VTE and VTE-related death), n/N (%): CEC adjudicated
# Description: The primary objective of Study 2 (MARINER) was to assess the efficacy and safety of rivaroxaban, compared with placebo in the prevention of symptomatic venous thromboembolism (VTE; lower extremity deep vein thrombosis [DVT] and non-fatal pulmonary embolism [PE]) and VTE-related death (death due to PE or death in which PE could not be ruled out as the cause) post-hospital discharge in high-risk, medically ill subjects.
# This was a multicenter, prospective, randomized, double-blind, placebo-controlled, event-driven study conducted in multiple geographic regions (North America, South America, Eastern Europe, Western Europe, and Other locations) that evaluated rivaroxaban, compared with placebo, in the prevention of symptomatic VTE events and VTE-related deaths for a period of 45 days post-hospital discharge in high-risk, medically ill subjects. The study consisted of a screening phase, a 45-day double-blind treatment phase, and a 30-day safety follow-up period (which was also the end of study [EOS]). The total duration for a subject who completed the study (including the safety follow-up period) after randomization was 75 (±5) days.
# The index hospitalization was at least 3 and no more than 10 consecutive days in duration. […] Subjects received thromboprophylaxis during the index hospitalization with low molecular weight heparin (LMWH) or unfractionated heparin (UFH).
# Randomization occurred on the same day or the day after the subject left the hospital, and occurred at the hospital, clinic, or other discharge destination. Eligible subjects were to be randomly assigned (1:1) by strata (by creatinine clearance [CrCl] level [≥30-<50 mL/min versus ≥50 mL/min] and by country) to receive either rivaroxaban or placebo. Subjects with a baseline CrCl of ≥50 mL/min were to receive rivaroxaban 10 mg once daily (QD) or placebo QD. A dose adjustment to rivaroxaban 7.5 mg QD was to be implemented for subjects with a baseline CrCl of ≥30 to <50 mL/min. Study drug started at randomization (Day 1) and continued until Day 45 (inclusive). The subject was assessed 30 days later for safety follow-up.
# Criteria for Evaluation: This was a clinical outcomes study. The primary efficacy outcome was the composite of all symptomatic VTE events and VTE-related death from randomization up to Day 45. Secondary efficacy outcomes were: VTE-related death; symptomatic VTE; the composite of symptomatic VTE and ACM; the composite of symptomatic VTE, MI, non-hemorrhagic stroke and CV death; and ACM.
# The primary and secondary efficacy outcomes were analyzed based on the time from randomization to the first occurrence in the ITT analysis set and Up-to-Day 45 analysis phase. […] A Cox proportional hazards model, stratified by subjects with CrCl ≥30 to <50 mL/min versus subjects with CrCl ≥50 mL/min, with the treatment (as randomized) as the only covariate was used for each analysis. A 2-sided p-value was reported, and if it was less than the 2-sided alpha of 0.05, then superiority of the study drug was to be declared when the observed survival functions favored rivaroxaban. The point estimate and corresponding 95% confidence interval (CI) for the hazard ratio (HR; rivaroxaban to placebo) were provided based on the Cox proportional hazards model. To control the family-wise type I error rate at alpha of 0.05 (2-sided) in testing for efficacy outcomes, if superiority of rivaroxaban over placebo for the primary efficacy outcome was established, superiority of rivaroxaban over placebo on secondary outcomes was tested sequentially using a closed testing procedure in a hierarchical order, each at alpha of 0.05 (2-sided).
# [2] = system: events prevented vs bleeding events caused; assay: MARINER benefit-risk analysis (excess number of events per 10,000 subjects); assay type: in vivo, human
# Experimental: The benefit-risk of rivaroxaban versus placebo was evaluated based on the excess number of events between treatments for events intended to be prevented (benefits) and events that were caused (risks).
# Although the primary efficacy endpoint was not statistically different between rivaroxaban and placebo, the benefit-risk analyses were conducted to further assess the totality of the data. Based on the ITT analysis set and Up-to-Day 45 analysis phase, for 10,000 subjects treated with rivaroxaban up to 45 days, on average, rivaroxaban would prevent 27 events of the composite of symptomatic VTE and VTE-related death, while causing 12 more major bleeding events than with placebo. […] Therefore, focusing instead on major thrombotic events that were fatal or caused potentially irreversible harm, on average, rivaroxaban would prevent 55 events of the composite of nonfatal PE, MI, non-hemorrhagic stroke, and non-hemorrhagic ACM, while causing 2 more events of the composite of critical site bleeding and fatal bleeding than with placebo.
# [3] = Up-to-Day 45, ITT, listed as rivaroxaban
# [4] = as reported by the investigator
# [5] = 10 mg dose stratum, for 10,000 subjects
# [6] = for 10,000 subjects treated up to 45 days
smiles,measurement,setting,value
"O=C(NC[C@H]1CN(c2ccc(N3CCOCC3=O)cc2)C(=O)O1)c1ccc(Cl)s1 [Rivaroxaban, 5-chloro-N-({(5S)-2-oxo-3-[4-(3-oxo-4-morpholinyl)phenyl]-1,3,oxazolidin-5-yl}methyl)-2-thiophenecarboxamide]","Primary efficacy outcome, HR vs placebo",[1]; 7.5 mg dose stratum,1.00
same,"Primary efficacy outcome, RRR vs placebo",[1]; 7.5 mg dose stratum,0%
same,"Primary efficacy outcome, incidence","[1]; 7.5 mg dose stratum, Up-to-Day 45, ITT",1.64%
same,"Primary efficacy outcome, HR vs placebo",[1]; 10 mg dose stratum,0.67
same,"Primary efficacy outcome, RRR vs placebo",[1]; 10 mg dose stratum,33%
same,"Primary efficacy outcome, incidence","[1]; 10 mg dose stratum, Up-to-Day 45, ITT",0.65%
same,"Rehospitalization for symptomatic VTE within 30 days after randomization, HR vs placebo",[1]; ITT,0.50
same,"Rehospitalization for symptomatic VTE within 30 days after randomization, incidence",[1]; ITT,0.15%
same,"ACM, event rate","[1]; Up-to-Day 45, ITT",1.19 100 pt-45 dy
same,"ACM, hazard ratio (95% CI) vs placebo","[1]; Up-to-Day 45, ITT","0.80 (0.58, 1.09)"
same,"Composite of symptomatic VTE and ACM, RRR vs placebo","[1]; Up-to-Day 45, ITT",27%
same,"Composite of symptomatic VTE and ACM, absolute difference vs placebo","[1]; Up-to-Day 45, ITT",0.48%
same,"Composite of symptomatic VTE and ACM, event rate","[1]; Up-to-Day 45, ITT",1.31 100 pt-45 dy
same,"Composite of symptomatic VTE and ACM, hazard ratio (95% CI) vs placebo","[1]; Up-to-Day 45, ITT","0.73 (0.54, 0.97)"
same,"Composite of symptomatic VTE and ACM, n/N (%)","[1]; Up-to-Day 45, ITT",78/6007 (1.30) %
same,"Composite of symptomatic VTE, MI, non-hemorrhagic stroke and CV death, event rate","[1]; Up-to-Day 45, ITT",1.58 100 pt-45 dy
same,"Composite of symptomatic VTE, MI, non-hemorrhagic stroke and CV death, hazard ratio (95% CI) vs placebo","[1]; Up-to-Day 45, ITT","0.78 (0.60, 1.02)"
same,"Composite of symptomatic VTE, MI, non-hemorrhagic stroke and CV death, n/N (%)","[1]; Up-to-Day 45, ITT",94/6007 (1.56) %
same,"Death (PE cannot be ruled out), event rate","[1]; Up-to-Day 45, ITT",0.67 100 pt-45 dy
same,"Death (PE cannot be ruled out), hazard ratio (95% CI) vs placebo","[1]; Up-to-Day 45, ITT","0.98 (0.63, 1.51)"
same,"Death (PE cannot be ruled out), n/N (%)","[1]; Up-to-Day 45, ITT",40/6007 (0.67) %
same,"Death (PE), event rate","[1]; Up-to-Day 45, ITT",0.05 100 pt-45 dy
same,"Death (PE), hazard ratio (95% CI) vs placebo","[1]; Up-to-Day 45, ITT","0.60 (0.14, 2.51)"
same,"Death (PE), n/N (%)","[1]; Up-to-Day 45, ITT",3/6007 (0.05) %
same,"MI, HR vs placebo","[1]; Up-to-Day 45, ITT",1.36
same,"MI, incidence","[1]; Up-to-Day 45, ITT",0.25%
same,"Non-hemorrhagic stroke, HR vs placebo","[1]; Up-to-Day 45, ITT",0.63
same,"Non-hemorrhagic stroke, incidence","[1]; Up-to-Day 45, ITT",0.32%
same,"Primary efficacy outcome, absolute difference vs placebo","[1]; Up-to-Day 45, ITT",0.27%
same,"Primary efficacy outcome, event rate","[1]; Up-to-Day 45, ITT",0.84 100 pt-45 dy
same,"Primary efficacy outcome, hazard ratio (95% CI) vs placebo","[1]; Up-to-Day 45, ITT","0.76 (0.52, 1.09)"
same,"Primary efficacy outcome, relative risk reduction vs placebo","[1]; Up-to-Day 45, ITT",24%
same,"Symptomatic VTE (lower extremity DVT and non-fatal PE), n/N (%)","[1]; Up-to-Day 45, ITT",11/6007 (0.18) %
same,"Symptomatic VTE, RRR vs placebo","[1]; Up-to-Day 45, ITT",56%
same,"Symptomatic VTE, absolute difference vs placebo","[1]; Up-to-Day 45, ITT",0.24%
same,"Symptomatic VTE, event rate","[1]; Up-to-Day 45, ITT",0.19 100 pt-45 dy
same,"Symptomatic VTE, hazard ratio (95% CI) vs placebo","[1]; Up-to-Day 45, ITT","0.44 (0.22, 0.89)"
same,"Symptomatic lower extremity DVT, RRR vs placebo","[1]; Up-to-Day 45, ITT",69%
same,"Symptomatic lower extremity DVT, absolute difference vs placebo","[1]; Up-to-Day 45, ITT",0.15%
same,"Symptomatic lower extremity DVT, event rate","[1]; Up-to-Day 45, ITT",0.07 100 pt-45 dy
same,"Symptomatic lower extremity DVT, hazard ratio (95% CI) vs placebo","[1]; Up-to-Day 45, ITT","0.31 (0.10, 0.94)"
same,"Symptomatic lower extremity DVT, n/N (%)","[1]; Up-to-Day 45, ITT",4/6007 (0.07) %
same,"Symptomatic non-fatal PE, event rate","[1]; Up-to-Day 45, ITT",0.12 100 pt-45 dy
same,"Symptomatic non-fatal PE, hazard ratio (95% CI) vs placebo","[1]; Up-to-Day 45, ITT","0.47 (0.19, 1.14)"
same,"Symptomatic non-fatal PE, n/N (%)","[1]; Up-to-Day 45, ITT",7/6007 (0.12) %
same,"Symptomatic upper extremity DVT, number (and incidence)","[1]; Up-to-Day 45, ITT",no subject
same,"VTE-related death, event rate","[1]; Up-to-Day 45, ITT",0.72 100 pt-45 dy
same,"VTE-related death, hazard ratio (95% CI) vs placebo","[1]; Up-to-Day 45, ITT","0.93 (0.62, 1.42)"
same,"VTE-related death, n/N (%)","[1]; Up-to-Day 45, ITT",43/6007 (0.72) %
same,"Primary efficacy outcome (symptomatic VTE and VTE-related death), n/N (%)","[1]; Up-to-Day 45, ITT",50/6007 (0.83) %
same,"Primary efficacy outcome (symptomatic VTE and VTE-related death), n/N (%)",[1]; [3],0.83%
same,"ACM, hazard ratio (95% CI) vs placebo",[1]; [3],0.80
same,"ACM, n/N (%)",[1]; [3],1.18%
same,"Composite of symptomatic VTE and ACM, hazard ratio (95% CI) vs placebo",[1]; [3],0.73
same,"Composite of symptomatic VTE and ACM, n/N (%)",[1]; [3],1.30%
same,"Composite of symptomatic VTE, MI, non-hemorrhagic stroke and CV death, hazard ratio (95% CI) vs placebo",[1]; [3],0.78
same,"Composite of symptomatic VTE, MI, non-hemorrhagic stroke and CV death, n/N (%)",[1]; [3],1.56%
same,"Primary efficacy outcome, hazard ratio (95% CI) vs placebo",[1]; [3],0.76
same,"Symptomatic VTE (lower extremity DVT and non-fatal PE), n/N (%)",[1]; [3],0.18%
same,"Symptomatic VTE, hazard ratio (95% CI) vs placebo",[1]; [3],0.44
same,"Symptomatic lower extremity DVT, hazard ratio (95% CI) vs placebo",[1]; [3],0.31
same,"Symptomatic lower extremity DVT, n/N (%)",[1]; [3],0.07%
same,"Symptomatic non-fatal PE, hazard ratio (95% CI) vs placebo",[1]; [3],0.47
same,"Symptomatic non-fatal PE, n/N (%)",[1]; [3],0.12%
same,"VTE-related death, hazard ratio (95% CI) vs placebo",[1]; [3],0.93
same,"VTE-related death, n/N (%)",[1]; [3],0.72%
same,"Primary efficacy outcome, HR vs placebo",[1]; [4],0.40
same,"Primary efficacy outcome, RRR vs placebo",[1]; [4],60%
same,"Primary efficacy outcome, absolute difference vs placebo",[1]; [4],0.37%
same,"Primary efficacy outcome, incidence",[1]; as reported by the investigator (post-hoc sensitivity analysis),0.25%
same,Additional critical site and fatal bleeding vs placebo,[2]; 10 mg dose stratum,no additional
same,"Events of composite of nonfatal PE, MI, non-hemorrhagic stroke, non-hemorrhagic ACM prevented vs placebo",[2]; [5],63 events
same,Events of composite of symptomatic VTE and VTE-related death prevented vs placebo,[2]; [5],33 events
same,"Events of composite of nonfatal PE, MI, non-hemorrhagic stroke, non-hemorrhagic ACM prevented vs placebo",[2]; [6],55 events
same,More events of composite of critical site bleeding and fatal bleeding than with placebo,[2]; [6],2 events
same,Events of composite of symptomatic VTE and VTE-related death prevented vs placebo,"[2]; for 10,000 subjects treated up to 45 days, ITT",27 events
same,More major bleeding events caused than with placebo,"[2]; human, in vivo",12 events
